Measured values from paper PMC11938014, “Development and Application of Small Molecule–Peptide Conjugates as Cathepsin K-Specific Covalent Irreversible Inhibitors in Human Osteoclast and Lung Cancer” (JACS Au, 2025).

Key:
CTSB = biological target: T1, CTSB (Homo sapiens, UniProt P07858); assay: Kinetic evaluation of recombinant cathepsin inhibition, fluorogenic substrate Z-FR-AMC; assay type: biochemical
T1 construct: made in house
Procedure: (§1) Cathepsin (0.4 nM, CatK) or 5 nM (CatS, CatB, and CatL) were each mixed with inhibitors before adding the fluorogenic substrate. The proteases were then reacted with their substrates, Z-RR-AMC (CatL) or Z-FR-AMC (CatS, CatB, and CatK), for 30 min at 37 °C in the phosphate buffer (100 mM Na2HPO4/NaH2PO4, 50 mM NaCl, 5 mM DTT, 0.1% PEG-6000, at pH 6). Reactions were done in 96-well black flat-bottom microplates (Greiner, Germany); fluorescence (Ex/Em 370 and 460 nm) was measured by a Tecan INFINITE M1000 pro plate reader (Tecan, Switzerland) in the presence of inhibitors or vehicle. For irreversible inhibitors, reaction data were analyzed by using the one-phase association formula in GraphPad Prism 9 software: Y = Y0 + (plateau – Y0) × (1 – exp(−K × X)), where Y0 and Y denote the fluorescence signals at times 0 and t, respectively, K represents the observed reaction rate kobs, and X signifies the […]. The inactivation rates at each inhibitor concentration were determined by subtracting the inactivation observed in the control sample: kobs – kctrl. The maximum inactivation rate (kinact) was derived as the asymptote from the equation Y = kinact × X/(Ki^app + X), where X represents the inhibitor concentration, Y is the observed inactivation rate for each X, and Ki^app is the apparent inhibition constant. Ki values were derived from IC50 or Ki^app using the equations Ki = Ki^app/(1 + […]) and IC50 = E0/2 + Ki^app, where Km represents the Michaelis–Menten constant, S denotes substrate concentration, and E0 indicates cathepsin concentration. The maximum inhibitor dose in the experiment was 50 μM. Measurements were conducted in multiple independent duplicates. Average values are listed.

CTSL = biological target: T2, CTSL (Homo sapiens, UniProt P07711); assay: Kinetic evaluation of recombinant cathepsin inhibition, fluorogenic substrate Z-RR-AMC; assay type: biochemical
T2 construct: made in house
Procedure: as §1

[1] = biological target: T3, endogenous cathepsin K in the nucleus of human osteoclast (Homo sapiens, UniProt P43235); assay: Fluorescence microscopy of nuclear CTSK inhibition (GD32 probe); assay type: cell-based; details: 3 μM, 2 h, then GD32 8 h
T3 construct: endogenous in cells; host or cells: primary human osteoclasts differentiated from blood monocytes with M-CSF and RANKL
T3 sequence (P43235 115-329): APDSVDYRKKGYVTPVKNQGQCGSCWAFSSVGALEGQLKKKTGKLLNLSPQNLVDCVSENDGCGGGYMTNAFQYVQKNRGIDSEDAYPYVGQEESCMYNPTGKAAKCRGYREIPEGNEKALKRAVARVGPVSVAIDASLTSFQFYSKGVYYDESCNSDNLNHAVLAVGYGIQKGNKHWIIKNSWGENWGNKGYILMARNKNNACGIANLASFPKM
Source text: We have generated inhibitors that block nuclear CTSK activity for the first time. […] CTSK activity labeled by a specific fluorescence ABP, GD32, was detected in the nucleus and nucleoli of osteoclasts, as reported by Dey et al.[19] The CTSK nuclear signal was completely eliminated in the presence of the inhibitors (Figure 9). These inhibitors can facilitate studying CTSK nuclear activity.
Figure 9 Detection of inhibition of endogenous cathepsin K in the nucleus of human osteoclast by fluorescence microscopy. (a) Osteoclast cells were treated with GD20 or GD38 inhibitors [3 μM] or DMSO vehicle in culture medium for 2 h, followed by incubation with GD32 for 8 h, as shown in Figure 8a. Cells were then fixed and stained with DAPI (nucleus), and Z stack images were captured by confocal microscopy. The white arrows indicate the nucleus. […] Red fluorescence is CTSK activity labeled by the ABP (GD32) and blue fluorescence (DAPI). (b) Microscopy image analysis software Imaris 10.0.1 was used to produce a three-dimensional (3D) surface rendering image of a cell nucleus (transparent blue) and CTSK inside it (opaque red) on top of the original image (blue, DAPI; red, GD32). The thresholds for the surfaces were chosen to emphasize CTSK inside the nucleus. One nucleus for each treatment was chosen from pictures in (a). […]

[2] = biological target: T4, Recombinant human cathepsin S (Homo sapiens, UniProt P25774); assay: Recombinant cathepsin inhibition, gel-based competition with GB123 probe; assay type: biochemical; details: Figure 2, read-out: IC50 [μM] CTSS
T4 construct: made in house
Procedure: In-gel fluorescence analysis was used to detect the residual activity of the cathepsins by applying pan-cathepsin probe GB123 to detect the stable enzyme–probe complex. This approach is used for testing inhibition and selectivity.[37],[41]
Recombinant human cathepsin L (0.5 μM), cathepsin B (0.5 μM), cathepsin K (0.5 μM), and cathepsin S (0.5 μM) were pretreated with different concentrations of inhibitors (GD compounds, odanacatib) for 1 h in reaction buffer (50 mM acetate, 2 mM dithiothreitol (DTT), and 5 mM MgCl2, pH 5.5) at 37 °C. GB123 (1 μM) was added and incubated with samples for 60 min at 37 °C.[37],[41] The reaction was stopped by the addition of sample buffer 4× (40% glycerol, 0.2 M Tris/HCl pH 6.8, 20% β-mercaptoethanol, 12% SDS, and 0.4 mg/mL bromophenol blue). Samples were then boiled, separated on a 12.5% SDS gel, and scanned for fluorescence by a Typhoon scanner FLA 9500 at excitation and emission wavelengths of 635 and 670 nm for GB123.

T2 sequence (P07711 114-333): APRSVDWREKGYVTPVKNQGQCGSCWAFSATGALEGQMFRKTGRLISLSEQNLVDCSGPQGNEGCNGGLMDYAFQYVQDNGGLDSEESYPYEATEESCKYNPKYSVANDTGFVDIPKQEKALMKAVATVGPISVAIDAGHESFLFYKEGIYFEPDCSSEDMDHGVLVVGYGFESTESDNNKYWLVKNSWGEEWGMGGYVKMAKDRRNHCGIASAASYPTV
T4 sequence (P25774 115-331): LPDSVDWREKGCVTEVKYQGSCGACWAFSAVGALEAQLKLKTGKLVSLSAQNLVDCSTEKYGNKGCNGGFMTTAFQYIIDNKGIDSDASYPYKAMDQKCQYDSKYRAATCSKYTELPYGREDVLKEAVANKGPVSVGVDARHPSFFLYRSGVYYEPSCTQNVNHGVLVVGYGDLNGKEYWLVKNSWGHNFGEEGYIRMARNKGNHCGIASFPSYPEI

Ki (CTSB; maximum inhibitor dose 50 μM) [µM]	Ki (CTSL; maximum inhibitor dose 50 μM) [µM]	nuclear CTSK activity labeled by GD32 [1]	IC50 [2] [µM]	type of inhibition, CTSB (CTSB)	Ki (CTSB; irreversible inhibitor) [µM]	kinact (CTSB; read-out: kinact (at 50 μM), CTSB) [s⁻¹]	type of inhibition, CTSL (CTSL)	Ki (CTSL; irreversible inhibitor) [µM]	kinact (CTSL; read-out: kinact (at 50 μM), CTSL) [s⁻¹]	Structure (SMILES)
> 50	> 50	block CTSK activity in the nucleolus	13 ± 2.8							CC(C)C[C@H](N[C@@H](c1ccc(-c2ccc(S(C)(=O)=O)cc2)cc1)C(F)(F)F)C(=O)NCC(=O)COC(=O)[C@@H]1CCCN1C(=O)[C@H](CC(C)C)NC(=O)OCC1c2ccccc2-c2ccccc21 [GD20]
		block CTSK activity in the nucleolus	8.3 ± 2.3	irreversible	> 50	0.0072	irreversible	> 50	0.0045	CC(C)C[C@H](N[C@@H](c1ccc(-c2ccc(S(C)(=O)=O)cc2)cc1)C(F)(F)F)C(=O)NCC(=O)COC(=O)[C@@H]1CCCN1C(=O)[C@H](CCC(N)=O)NC(=O)OCC1c2ccccc2-c2ccccc21 [GD38]
